Source: US9290777B2, “Putative cytokinin receptor and methods for use thereof” (NATIONAL UNIVERSITY OF SINGAPORE, priority 2007, dated 2016)
Entries after “also recorded” stand apart in the source; their conditions may differ.

System: STM
Experiment: qRT-PCR of cytokinin responsive gene after BA pulse, fold change vs untreated wild type
Assay type: cell-based, Arabidopsis thaliana
Method: For quantitative real-time PCR (qRT-PCR) analysis of cytokinin-inducible gene expression, seeds were germinated on MS medium with 3% (w/v) sucrose and grown for 6 days. Cytokinin treatment was carried out by incubating seedlings in the same MS+sucrose liquid medium (no agar) supplemented with 0, 0.01, 0.1, 1 or 5 μM [solubilized in 0.1% dimethylsulfoxide (DMSO) and diluted with the MS medium] for 5 min, 15 min, 30 min or 1 h. The control seedlings were incubated with DMSO (0.1%, the concentration used to dissolve cytokinins for the treatment) for the corresponding durations and used for expression analysis. Before RNA preparation, WT, OE and AS seedlings were pooled and stored in RNAlater solution (Qiagen, Valencia, Calif.). Total RNA was extracted using the Rneasy Plant Mini Kit (Qiagen). SYBRgreen RT-PCR reagents (Applied Biosystems) were used to synthesize double-stranded cDNA. The number of transcripts present in biological replicates each of WT, OE and AS seedlings, with or without BA and DMSO, was determined from three independent replicates. Fold induction of the transcripts was calculated according to the manufacturer's instructions (ABI Prism 7700 Sequence Detection System, User Bulletin #2).

For `c1ccc(CNc2ncnc3nc[nH]c23)cc1` [benzyladenine], the “STM transcripts in OE lines compared to untreated wild type” value (5 μM BA, 1 h, OE lines (e.g. OE1, OE12), listed as BA) was “less than a two fold change; also recorded: no significant difference”, the STM fold change (BA 0.01 μM, 5 min, AS1, ↑ up) was 3.23↑ and the STM fold change (BA 0.01 μM, 5 min, AS8, ↑ up) was 5.2↑. For the same molecule, the STM fold change (BA 0.01 μM, 5 min, AS21, ↑ up) was 7.1↑, the STM fold change (BA 0.01 μM, 5 min, OE1, ↓ down) was 3.41↓ and the STM fold change (BA 0.01 μM, 5 min, OE12, ↓ down) was 4.97↓. The STM fold change (BA 0.01 μM, 5 min, OE18, ↓ down) was 6.23↓, the STM fold change (BA 0.01 μM, 5 min, Wild type, ↑ up) was 2.45↑ and the STM fold change (BA 0.01 μM, 15 min, AS1, ↑ up) was 3.67↑. For the same molecule, the STM fold change (BA 0.01 μM, 15 min, AS8, ↑ up) was 5.58↑, the STM fold change (BA 0.01 μM, 15 min, AS21, ↑ up) was 7.48↑ and the STM fold change (BA 0.01 μM, 15 min, OE1, ↓ down) was 3.23↓. The STM fold change (BA 0.01 μM, 15 min, OE12, ↓ down) was 4.65↓, the STM fold change (BA 0.01 μM, 15 min, OE18, ↓ down) was 6.02↓ and the STM fold change (BA 0.01 μM, 15 min, Wild type, ↑ up) was 2.54↑. The STM fold change (BA 0.01 μM, 30 min, AS1, ↑ up) was 3.91↑, the STM fold change (BA 0.01 μM, 30 min, AS8, ↑ up) was 5.95↑ and the STM fold change (BA 0.01 μM, 30 min, AS21, ↑ up) was 7.69↑. For the same molecule, the STM fold change (BA 0.01 μM, 30 min, OE1, ↓ down) was 3.01↓, the STM fold change (BA 0.01 μM, 30 min, OE12, ↓ down) was 4.31↓ and the STM fold change (BA 0.01 μM, 30 min, OE18, ↓ down) was 5.91↓. For the same molecule, the STM fold change (BA 0.01 μM, 30 min, Wild type, ↑ up) was 3.01↑, the STM fold change (BA 0.01 μM, 1 h, AS1, ↑ up) was 4.1↑ and the STM fold change (BA 0.01 μM, 1 h, AS8, ↑ up) was 6.06↑. The STM fold change (BA 0.01 μM, 1 h, AS21, ↑ up) was 8.05↑, the STM fold change (BA 0.01 μM, 1 h, OE1, ↓ down) was 2.81↓ and the STM fold change (BA 0.01 μM, 1 h, OE12, ↓ down) was 3.96↓. The STM fold change (BA 0.01 μM, 1 h, OE18, ↓ down) was 5.82↓, the STM fold change (BA 0.01 μM, 1 h, Wild type, ↑ up) was 3.2↑ and the STM fold change (BA 0.1 μM, 5 min, AS1, ↑ up) was 4.24↑. For the same molecule, the STM fold change (BA 0.1 μM, 5 min, AS8, ↑ up) was 6.22↑, the STM fold change (BA 0.1 μM, 5 min, AS21, ↑ up) was 8.21↑ and the STM fold change (BA 0.1 μM, 5 min, OE1, ↓ down) was 3.2↓. The STM fold change (BA 0.1 μM, 5 min, OE12, ↓ down) was 3.81↓, the STM fold change (BA 0.1 μM, 5 min, OE18, ↓ down) was 5.79↓ and the STM fold change (BA 0.1 μM, 5 min, Wild type, ↑ up) was 3.56↑. The STM fold change (BA 0.1 μM, 15 min, AS1, ↑ up) was 4.49↑, the STM fold change (BA 0.1 μM, 15 min, AS8, ↑ up) was 6.39↑ and the STM fold change (BA 0.1 μM, 15 min, AS21, ↑ up) was 8.36↑. For the same molecule, the STM fold change (BA 0.1 μM, 15 min, OE1, ↓ down) was 3.14↓, the STM fold change (BA 0.1 μM, 15 min, OE12, ↓ down) was 3.73↓ and the STM fold change (BA 0.1 μM, 15 min, OE18, ↓ down) was 5.61↓. For the same molecule, the STM fold change (BA 0.1 μM, 15 min, Wild type, ↑ up) was 3.68↑, the STM fold change (BA 0.1 μM, 30 min, AS1, ↑ up) was 4.79↑ and the STM fold change (BA 0.1 μM, 30 min, AS8, ↑ up) was 6.63↑. For the same molecule, the STM fold change (BA 0.1 μM, 30 min, AS21, ↑ up) was 8.58↑, the STM fold change (BA 0.1 μM, 30 min, OE1, ↓ down) was 2.92↓ and the STM fold change (BA 0.1 μM, 30 min, OE12, ↓ down) was 3.49↓. The STM fold change (BA 0.1 μM, 30 min, OE18, ↓ down) was 5.34↓, the STM fold change (BA 0.1 μM, 30 min, Wild type, ↑ up) was 3.85↑ and the STM fold change (BA 0.1 μM, 1 h, AS1, ↑ up) was 4.97↑. The STM fold change (BA 0.1 μM, 1 h, AS8, ↑ up) was 6.94↑, the STM fold change (BA 0.1 μM, 1 h, AS21, ↑ up) was 8.87↑ and the STM fold change (BA 0.1 μM, 1 h, OE1, ↓ down) was 2.76↓. The STM fold change (BA 0.1 μM, 1 h, OE12, ↓ down) was 3.01↓, the STM fold change (BA 0.1 μM, 1 h, OE18, ↓ down) was 5.01↓ and the STM fold change (BA 0.1 μM, 1 h, Wild type, ↑ up) was 3.96↑. The STM fold change (BA 1.0 μM, 5 min, AS1, ↑ up) was 5.53↑, the STM fold change (BA 1.0 μM, 5 min, AS8, ↑ up) was 7.8↑ and the STM fold change (BA 1.0 μM, 5 min, AS21, ↑ up) was 8.89↑. For the same molecule, the STM fold change (BA 1.0 μM, 5 min, OE1, ↓ down) was 2.86↓, the STM fold change (BA 1.0 μM, 5 min, OE12, ↓ down) was 2.89↓ and the STM fold change (BA 1.0 μM, 5 min, OE18, ↓ down) was 4.26↓. The STM fold change (BA 1.0 μM, 5 min, Wild type, ↑ up) was 4.11↑, the STM fold change (BA 1.0 μM, 15 min, AS1, ↑ up) was 5.78↑ and the STM fold change (BA 1.0 μM, 15 min, AS8, ↑ up) was 7.93↑. The STM fold change (BA 1.0 μM, 15 min, AS21, ↑ up) was 9.02↑, the STM fold change (BA 1.0 μM, 15 min, OE1, ↓ down) was 2.61↓ and the STM fold change (BA 1.0 μM, 15 min, OE12, ↓ down) was 2.56↓. For the same molecule, the STM fold change (BA 1.0 μM, 15 min, OE18, ↓ down) was 4.11↓, the STM fold change (BA 1.0 μM, 15 min, Wild type, ↑ up) was 4.36↑ and the STM fold change (BA 1.0 μM, 30 min, AS1, ↑ up) was 5.83↑. For the same molecule, the STM fold change (BA 1.0 μM, 30 min, AS8, ↑ up) was 7.99↑, the STM fold change (BA 1.0 μM, 30 min, AS21, ↑ up) was 9.25↑ and the STM fold change (BA 1.0 μM, 30 min, OE1, ↓ down) was 2.39↓. The STM fold change (BA 1.0 μM, 30 min, OE12, ↓ down) was 2.87↓, the STM fold change (BA 1.0 μM, 30 min, OE18, ↓ down) was 4.01↓ and the STM fold change (BA 1.0 μM, 30 min, Wild type, ↑ up) was 4.69↑. For the same molecule, the STM fold change (BA 1.0 μM, 1 h, AS1, ↑ up) was 6.21↑, the STM fold change (BA 1.0 μM, 1 h, AS8, ↑ up) was 8.07↑ and the STM fold change (BA 1.0 μM, 1 h, AS21, ↑ up) was 9.66↑. For the same molecule, the STM fold change (BA 1.0 μM, 1 h, OE1, ↓ down) was 2.11↓, the STM fold change (BA 1.0 μM, 1 h, OE12, ↓ down) was 2.62↓ and the STM fold change (BA 1.0 μM, 1 h, OE18, ↓ down) was 3.82↓. For the same molecule, the STM fold change (BA 1.0 μM, 1 h, Wild type, ↑ up) was 4.97↑, the STM fold change (BA 5.0 μM, 5 min, AS1, ↑ up) was 6.01↑ and the STM fold change (BA 5.0 μM, 5 min, AS8, ↑ up) was 8.46↑. For the same molecule, the STM fold change (BA 5.0 μM, 5 min, AS21, ↑ up) was 9.33↑, the STM fold change (BA 5.0 μM, 5 min, OE1, ↓ down) was 2.29↓ and the STM fold change (BA 5.0 μM, 5 min, OE12, ↓ down) was 2.49↓. The STM fold change (BA 5.0 μM, 5 min, OE18, ↓ down) was 3.35↓, the STM fold change (BA 5.0 μM, 5 min, Wild type, ↑ up) was 5.62↑ and the STM fold change (BA 5.0 μM, 15 min, AS1, ↑ up) was 6.21↑. For the same molecule, the STM fold change (BA 5.0 μM, 15 min, AS8, ↑ up) was 8.63↑, the STM fold change (BA 5.0 μM, 15 min, AS21, ↑ up) was 9.44↑ and the STM fold change (BA 5.0 μM, 15 min, OE1, ↓ down) was 2.11↓. For the same molecule, the STM fold change (BA 5.0 μM, 15 min, OE12, ↓ down) was 2.13↓, the STM fold change (BA 5.0 μM, 15 min, OE18, ↓ down) was 3.28↓ and the STM fold change (BA 5.0 μM, 15 min, Wild type, ↑ up) was 5.89↑. The STM fold change (BA 5.0 μM, 30 min, AS1, ↑ up) was 6.43↑, the STM fold change (BA 5.0 μM, 30 min, Wild type, ↑ up) was 5.99↑ and the “STM transcripts, dose dependence” value (BA 0.01-5 μM pulse, 5 min-1 h) was “dose-dependent increase”.
